Results: the NIST ThermoML archive (doi:10.1016/j.jct.2009.05.013)
Several values for one entry are separate records, joined by “and”; a condition that tells them apart may be missing. Equal values may be shown once. ± gives the expanded uncertainty stated by the source.

Settings: Crystal, Calculated from knudsen effusion weight loss

Nc1cc(Cl)c(Cl)cc1[N+](=O)[O-] [4,5-dichloro-2-nitrobenzenamine]
Settings | vapor or sublimation pressure
351.32 K | 0.000199 ± 1e-05 kPa and 0.000196 ± 1e-05 kPa and 0.000193 ± 1e-05 kPa
353.21 K | 0.000251 ± 1.3e-05 kPa and 0.000243 ± 1.2e-05 kPa and 0.000239 ± 1.2e-05 kPa
355.25 K | 0.000288 ± 1.4e-05 kPa and 0.000286 ± 1.4e-05 kPa
357.24 K | 0.000364 ± 1.8e-05 kPa and 0.000355 ± 1.8e-05 kPa
359.42 K | 0.000463 ± 2.3e-05 kPa and 0.000453 ± 2.3e-05 kPa and 0.000452 ± 2.3e-05 kPa
361.45 K | 0.000565 ± 2.8e-05 kPa and 0.000558 ± 2.8e-05 kPa and 0.000552 ± 2.8e-05 kPa
363.23 K | 0.000665 ± 3.3e-05 kPa and 0.000673 ± 3.4e-05 kPa and 0.000675 ± 3.4e-05 kPa
365.49 K | 0.000831 ± 4.2e-05 kPa and 0.000843 ± 4.2e-05 kPa and 0.000807 ± 4e-05 kPa
367.38 K | 0.000995 ± 5e-05 kPa and 0.000996 ± 5e-05 kPa and 0.000976 ± 4.9e-05 kPa
